From patent publication EP4556465A1, “NOVEL BICYCLIC PD-L1 INHIBITORS, PREPARATION METHODS THEREFOR AND MEDICINAL USES THEREOF” (priority 2022, dated 2024)

Key:
[1] = test system: SD rats; experiment: Safety test after repeated administration for 14 days; assay type: in vivo; conditions: oral gavage 300 mg/kg once a day for 14 days
Description: • Animal species and number: SD rats; 6 rats in each group (half male and half female); Mode of administration: oral gavage; […]; • Administration frequency: administration once a day for 14 days.
(§1) Side-cage observation of acute toxicity reactions was performed for 4 h after administration, and detailed clinical observations were performed on animals with apparent abnormal manifestations. General clinical observations included observation twice a day during the test (observation once in the morning and observation once in the afternoon). Mortality, morbidity, respiration, secretion, feces, and diet, water drinking, etc. were observed, and changes in body weight of rats during administration were recorded. Detailed clinical observations include, but are not limited to, behavioral activities, skin, hair, eyes, ears, noses, abdomens, external genitalia, anuses, limbs, feet, and breathing. The animals in each group were euthanized at the end of administration, and all animals were dissected and gross observed.

[2] = test system: breast cancer tumor cells 4T1; conditions: 10 mg/kg, i.g., QD×21 days; for Tumor inhibition rate / tumor-inhibiting efficacy: 4T1 subcutaneous tumor
Description: Subsequently, each group of animals was dosed, and the day of first administration was defined as test day 1; • Administration frequency: once a day; • General state observations: observation time and frequency: once a day; observation indicators or content: including, but not limited to, local administration of the animals, appearance signs, general behavioral activity, mental status, death, and other abnormal manifestations. The animals were euthanized at the end of the test. • Calculation of tumor volume: V=1/2×long diameter×short diameter^2 (mm^3).

[3] = target: T1, hPD-1/hPD-L1 (Homo sapiens, UniProt Q9NZQ7); experiment: PD-1/PD-L1 binding assay kit (CISBIO), HTRF assay of PD-1/PD-L1 protein-protein interaction; conditions: for inhibitory activity of PD-1/PD-L1 protein-protein interaction compared with BMS-202: HTRF, comparison with BMS-202
T1 construct: purchased CISBIO
Description: Experimental objective: the activity of the compounds of formula (I) to inhibit the PD-1/PD-L1 interaction was tested by using a PD-1/PD-L1 binding assay kit (CISBIO).
Experimental principle: HTRF (Homogeneous Time-Resolved Fluorescence) is a technique used to detect substances to be tested in pure liquid phase systems. It primarily utilizes energy transfer of two fluorescent groups, which are divided into an energy donor europium (Eu^+) and an energy acceptor. When the donor is externally excited (e.g., a flash lamp or laser), the energy can be resonantly transferred to the acceptor if the donor is close enough to the acceptor, and the acceptor is excited at a specific wavelength. By using the HTRF technology, the assay enables simple and rapid characterization of compounds and antibody blockers in a high-throughput format. By using anti-Tag1 labeled with Eu^+ (Europium) (the HTRF energy donor) and anti-Tag2 labeled with XL665 (the HTRF energy acceptor), the interaction between PD-L1 and PD-1 can be detected. PD-L1 protein and PD-1 protein are labeled with Tag1 and Tag2, respectively, and Eu^+ and XL665 bind to PD-L1 and PD-1, respectively, through antibodies to form complexes. […] This specific signal is directly proportional to the degree of PD1/PD-L1 interaction.
Experimental materials: kit: PD-1/PD-L1 binding assay kits purchased from CISBIO; and 96-well plate: purchased from CISBIO.
Test instrument: Perkin Elmer, model: EnVision.
Test compounds: the compounds in formula (I).
Experimental procedure: PD-1/PD-L1 binding assay kits were used. […] The plates were sealed by using microplate sealers, centrifuging was performed at 1000 rpm for 1 min, and incubation was performed at room temperature for 15 min. The Anti-Tag-Eu^3+ and Anti-tag-XL665 which were diluted with Buffer were then mixed in equal volumes, then 10 µL of the mixed solution was added to each well, the sealed plates were centrifuged at 1000 rpm for 1 min, and incubation was performed at room temperature for 2 h. […] IC50 of the compounds was calculated by using Graphpad.

[4] = test system: SD rats; experiment: Acute toxicity test, single oral gavage; assay type: in vivo; conditions: 500 mg/kg, 1000 mg/kg and 2000 mg/kg
Description: (§2) • Animal species and number: SD rats; 6 rats in each group (half male and half female); Mode of administration: oral gavage; […]; • Administration frequency: administration once.
as §1, with “Side-cage observation on the day of administration (D1): frequency and time of observation: side-cage” for “Side-cage”, “after administration of animals in each group,” for “after administration,”, “manifestations.” for “manifestations. General clinical observations included observation twice a day during the test (observation once in the morning and observation once in the afternoon).”, “of the observation period,” for “of administration,”

[5] = Acute toxicity test, single oral gavage; assay type: in vivo; conditions: both sexes, rat, in vivo, po, SD rats, read-out: maximum tolerated dose (MTD)
Description: as §2
as §1, with “Side-cage observation on the day of administration (D1): frequency and time of observation: side-cage” for “Side-cage”, “after administration of animals in each group,” for “after administration,”, “manifestations.” for “manifestations. General clinical observations included observation twice a day during the test (observation once in the morning and observation once in the afternoon).”, “of the observation period,” for “of administration,”

T1 sequence (Q9NZQ7 19-238 limits assumed): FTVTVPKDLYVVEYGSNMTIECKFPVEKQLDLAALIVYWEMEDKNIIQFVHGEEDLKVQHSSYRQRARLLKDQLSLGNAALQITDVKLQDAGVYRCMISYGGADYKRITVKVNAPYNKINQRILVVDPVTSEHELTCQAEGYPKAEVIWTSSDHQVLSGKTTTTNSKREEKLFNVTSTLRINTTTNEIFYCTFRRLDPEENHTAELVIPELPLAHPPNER

SMILES	clinical observations (water intake, food intake, activity, body weight) [1]	general state of tumor-bearing animals during administration (water and food intake, activity, body weight, toxicity) [2]	Tumor inhibition rate [2]	tumor-inhibiting efficacy [2]	IC50 [3]	inhibitory activity of PD-1/PD-L1 protein-protein interaction compared with BMS-202 [3]	gross observation, test sample-related changes [4]	mortality or moribundity [4]	MTD [5]
OCCN1CCc2nc(OCc3cccc(-c4ccccc4F)c3Cl)ccc2C1 [I-D-18, 2-(2-((2-chloro-2'-fluoro-[1,1'-biphenyl]-3-yl)methoxy)-7,8-dihydro-1,6-naphthyridin-6(5H)-yl)ethan-1-ol]	normal water intake and food intake, normal activity, and normal body weight, with no significant abnormalities	normal water intake and food intake, normal activity, normal body weight, and no toxicity manifestations	+++ ("+++" indicates a tumor inhibition rate of more than 60%)	significant tumor-inhibiting efficacy	16.3 nM	superior to that of the compound BMS-202	No test sample-related changes were observed grossly	No mortality or moribundity was observed	–
Fc1ccccc1-c1cccc(COc2ccc3c(n2)CCNC3)c1Cl [I-D-27, 2-((2-chloro-2'-fluoro-[1,1'-biphenyl]-3-yl)methoxy)-5,6,7,8-tetrahydro-1,6-naphthyridine]	normal water intake and food intake, normal activity, and normal body weight, with no significant abnormalities	normal water intake and food intake, normal activity, normal body weight, and no toxicity manifestations	+++ ("+++" indicates a tumor inhibition rate of more than 60%)	significant tumor-inhibiting efficacy	10.1 nM	superior to that of the compound BMS-202	No test sample-related changes were observed grossly	No mortality or moribundity was observed	≥ 2000 mg/kg
O=C(O)CN1CCc2nc(OCc3cccc(-c4ccccc4F)c3Cl)ccc2C1 [I-D-26, 2-(2-((2-chloro-2'-fluoro-[1,1'-biphenyl]-3-yl)methoxy)-7,8-dihydro-1,6-naphthyridin-6(5H)-yl)acetic acid]	normal water intake and food intake, normal activity, and normal body weight, with no significant abnormalities	–	+++ ("+++" indicates a tumor inhibition rate of more than 60%)	significant tumor-inhibiting efficacy	–	–	No test sample-related changes were observed grossly	No mortality or moribundity was observed	≥ 2000 mg/kg
